Measurements published in patent US11718620B2, “Method for treating a cancer mediated by abnormality of multi-kinases” (TransThera Sciences (Nanjing), Inc., priority 2016, dated 2023).
Like-named read-outs stand apart in the source and are kept apart here.

Legend:
[1] = target: T1, Aurora A (Homo sapiens, UniProt O14965); experiment: Aurora A enzymatic activity test, FAM-labeled peptide, Caliper; type: biochemical; details: FAM-labeled peptide substrate, read-out: Kinase-inhibiting activity IC50 Aurora A
T1 sequence (O14965 1-403): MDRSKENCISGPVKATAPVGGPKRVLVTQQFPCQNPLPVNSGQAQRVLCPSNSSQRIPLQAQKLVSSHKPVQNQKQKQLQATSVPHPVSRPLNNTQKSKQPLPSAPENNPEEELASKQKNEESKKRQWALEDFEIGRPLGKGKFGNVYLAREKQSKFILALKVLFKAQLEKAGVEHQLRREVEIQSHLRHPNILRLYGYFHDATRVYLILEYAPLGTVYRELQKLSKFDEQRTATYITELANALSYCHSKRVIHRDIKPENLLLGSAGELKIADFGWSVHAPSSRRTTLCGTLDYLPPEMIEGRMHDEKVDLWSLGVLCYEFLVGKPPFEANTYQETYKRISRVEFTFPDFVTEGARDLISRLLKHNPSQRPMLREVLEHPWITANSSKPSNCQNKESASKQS
Procedure: (§1) Test samples: Compounds in the present invention (the sequence numbers and structures thereof are shown in Table 1), dilution concentration: 0.03 μM-3 μM, a total of 10 concentration gradients.
(§2) Test method: enzymatic activity tests of Aurora kinase (including Aurora A and Aurora B) and VEGFR2 (KDR) were performed using a multi-function microplate reader.
(§3) a) 96-well plates, 10 dose groups, 3-fold serial dilutions, each well was added with DMSO, maximal concentration of 500 μM (50-fold compound).
(§4) b) 384-well plates, diluted with 1× kinase buffer (50 mM HEPES, pH 7.5; 0.0015% Brij-35; 2 mM DTT), each well containing 5× compound dissolved in 5 μL of 10% DMSO. Each well of the negative control contains 5 μL of 1× kinase buffer containing 10% DMSO.
(§5) Aurora A, Aurora B and KDR were dissolved in 1× kinase buffer and prepared as a 2.5× enzyme solution. After the compound in various concentrations was reacted with 2.5× enzyme solution at room temperature for 10 min, the FAM-labeled peptide substrate and ATP were added to initiate reaction. After incubation for 40 minutes, 25 μL of terminal solution (100 mM HEPES, pH 7.5; 0.015% Brij-35; 0.2% Coating Reagent #3; 50 mM EDTA) was added to stop the reaction, and the final data were read by Caliper.

[2] = target: T2, Aurora B (Homo sapiens, UniProt Q96GD4); experiment: Aurora B enzymatic activity test, FAM-labeled peptide, Caliper; type: biochemical; details: FAM-labeled peptide substrate, read-out: Kinase-inhibiting activity IC50 Aurora B
Procedure: as §1, §2, §3, §4, §5

[3] = target: T3, KDR(VEGFR2) (Homo sapiens, UniProt P35968); experiment: KDR enzymatic activity test, FAM-labeled peptide, Caliper; type: biochemical; details: FAM-labeled peptide substrate, read-out: Kinase-inhibiting activity IC50 KDR(VEGFR2)
Procedure: as §1, §2, §3, §4, §5

[4] = tested on: A549 Lung cancer cells; experiment: Cell proliferation, Cell Titer-Glo; type: cell-based; details: Homo sapiens, 72 hours, read-out: Cellular inhibitory activity IC50 A549
Procedure: (§6) Test method: The effect of compounds on cell proliferation of different cell lines was examined by Cell Titer-Glo method.
(§7) Each cell line was inoculated into a 96-well plate one day in advance, and after overnight incubation, drugs in different concentrations were added to a final concentration of 0-10000 nM, 3-5 folds dilution, for a total of 10 concentration points. After incubation for 72 hours, the mixture was added with Cell titer-Glo reagent equilibrated at room temperature, and shaken to incubation for 10 min, and then allowed to stand at room temperature for 2 min to stabilize the light signal. The multi-function microplate reader was used to read data from each well and analyze it.

[5] = tested on: BT-549 breast cancer cells; experiment: Cell proliferation, Cell Titer-Glo; type: cell-based; details: Homo sapiens, 72 hours, read-out: Cellular inhibitory activity IC50 BT-549
Procedure: as §6, §7

[6] = tested on: D4475 breast cancer cells; experiment: Cell proliferation, Cell Titer-Glo; type: cell-based; details: 72 hours, read-out: Cellular inhibitory activity IC50 D4475
Procedure: as §6, §7

[7] = tested on: MDA-MB-468 breast cancer cells; experiment: Cell proliferation, Cell Titer-Glo; type: cell-based; details: Homo sapiens, 72 hours, read-out: Cellular inhibitory activity IC50 MDA-MB-468
Procedure: as §6, §7

[8] = target: T1, Aurora A; experiment: Aurora A kinase activity test, [γ-33P]-ATP filter membrane; type: biochemical; details: 40 minutes at room temperature, read-out: Kinase-inhibiting activity IC50 Aurora A
Procedure: (§8) Test samples: compounds 1 to 4 in the present invention (the sequence numbers and structures thereof are shown in Table 1), dilution concentration: 0.03 μM-3 μM, a total of 10 concentration gradients.
as §2
(1) Test for Aurora a Kinase Activity:
Aurora A kinase protein and the compounds were sequentially added to the following reaction system: 8 mM MOPS pH 7.0, 0.2 mM EDTA, 200 μM LRRASLG (Kemptide), 10 mM magnesium acetate and [γ-^33P]-ATP (radioactive activity was approximately 500 cpm/pmol). Then the above reaction system was added with ATP to start the reaction, and incubated at room temperature for 40 minutes. Then the reaction was terminated by adding a 3% phosphoric acid solution. 10 μL was taken out from the reaction system, and then added dropwise to a P30 filtermat filter membrane, washed three times in 75 mM phosphoric acid solution for 5 minutes, and then washed once with methanol. After the filter membrane was dried, count was performed by a liquid crystal scintillation counter.

[9] = target: T2, Aurora B; experiment: Aurora B kinase activity test, [γ-33P]-ATP filter membrane; type: biochemical; details: 40 minutes at room temperature, read-out: Kinase-inhibiting activity IC50 Aurora B
Procedure: as §8, §2
(2) Test for Aurora B Kinase Activity:
Aurora B kinase protein and the compounds were sequentially added to the following reaction system: 8 mM MOPS pH 7.0, 0.2 mM EDTA, 30 μM […], 10 mM magnesium acetate and [γ-^33P]-ATP (radioactive activity was approximately 500 cpm/pmol). Then the above reaction system was added with ATP to start the reaction, and incubated at room temperature for 40 minutes. Then the reaction was terminated by adding a 3% phosphoric acid solution. 10 μL was taken out from the reaction system, and then added dropwise to a P30 filtermat filter membrane, washed three times in 75 mM phosphoric acid solution for 5 minutes, and then washed once with methanol. After the filter was dried, count was performed by a liquid crystal scintillation counter.

[10] = target: T3, KDR(VEGFR2); experiment: KDR kinase activity test, [γ-33P]-ATP filter membrane; type: biochemical; details: 40 minutes at room temperature, read-out: Kinase-inhibiting activity IC50 KDR (VEGFR2)
Procedure: as §8, §2
(3) Test for KDR Kinase Activity:
KDR kinase protein and the compounds were sequentially added to the following reaction system: 8 mM MOPS pH 7.0, 0.2 mM EDTA, 0.33 mg/mL myelin basic protein, 10 mM magnesium acetate and [γ-^33P]-ATP (radioactive activity was approximately 500 cpm/pmol). Then the above reaction system was added with ATP to start the reaction, and incubated at room temperature for 40 minutes. Then the reaction was terminated by adding a 3% phosphoric acid solution. 10 μL was taken out from the reaction system, and then added dropwise to a P30 filtermat filter membrane, washed three times in a 75 mM phosphoric acid solution for 5 minutes, and then washed once with methanol. After the filter was dried, count was performed by a liquid crystal scintillation counter.

[11] = tested on: human acute granulocytic leukemia Kasumi-1 cells xenograft; experiment: In vivo pharmacodynamic study, subcutaneous xenograft tumor model; design: species or system CB17 SCID mice; details: for Tumor Weight: QD × 18, Kasumi-1 tumor-bearing mice; for Tumor Growth Inhibition rate (TGI): QD × 18, by tumor weight
Procedure: (§9) Test sample: crystal form I prepared in Example 17 (crystal form I of compound 29)
Animals, Cells, Reagents & Instruments: Kasumi-1 cells, derived from ATCC.
CB17 SCID mice, 6-8 weeks, female, available from Shanghai Lingchang Biotechnology Co., Ltd.
Kasumi-1 cells were cultured in vitro in a single layer, and culture conditions were as follows: RPMI1640 medium supplemented with 10% heat-inactivated fetal bovine serum and 1% penicillin-streptomycin double antibody, 37° C., and 5% CO2. Passage was achieved two to three times a week. When the cells were in the exponential growth phase, the cells were harvested, counted, and inoculated.
0.2 mL of cell suspension containing about 1×10^7 Kasumi-1 cells (cell suspended in 1:1 base RPMI 1640 medium and nutrient gel) was subcutaneously inoculated into the right back of female CB17 SCID mice. Grouping administration was started when the average tumor volume reached 100-150 mm^3. Grouping method: Animals were weighed prior to administration and tumor volume was measured. Grouping was performed according to the tumor volume, with 8 mice per group.
Health and death of the animals were monitored daily. Body weight was measured twice a week, and samples were collected after the last dose and the tumor weight was weighed.

[12] = PK evaluation in beagle dogs; type: in vivo
Procedure: as §9
(1) Administration to animals: All animals were fasted for more than 12 h before administration, and fed at 4 h after the administration. […] Beagle dogs were given intravenously 1 mg/kg of crystal form I of compound 29 (prescription: 10% DMA+20% (30% Solutol)+70% saline) in a single dose, and blood was collected at 0 h before administration and 0.083, 0.25, 0.50, 1.0, 2.0, 4.0, 6.0, 8.0, 12 and 24 h after administration. Beagle dogs were given orally 2 mg/kg of crystal form I of compound 29 (Prescription: 10% DMA+20% (30% Solutol)+70% saline) in a single dose, and blood was collected at 0 h before administration and at 0.25, 0.50, 1.0, 2.0, 4.0, 6.0, 8.0, 12, and 24 h after administration, and 200 μL blood was taken through a small saphenous vein, and placed in a dried EDTA-K2 test tube. (2) Preparation of plasma: The whole blood sample was separated by low-speed centrifugation (1800 g, 5 min, 4° C.) (the whole blood was collected and placed in an ice bath, and plasma separation should be completed within 30 min) to give plasma, and the separated plasma was stored in a refrigerator at […] for analysis.
The sample to be tested (−80° C.) was taken from the refrigerator, thawed naturally at room temperature and vortexed for 5 min; 20 μL of plasma sample was accurately aspirated into a 1.5 mL centrifuge tube; added with 200 μL of internal standard working solution at a concentration of 50 ng/mL, and mixed well; after vortexed for 5 min, the mixture was centrifuged for 5 min (12000 rpm); 50 μL of supernatant was accurately aspirated into 96-well plates pre-filled with 150 μL/well of water; vortexed for 5 min, LC-MS/MS determination was performed in an injection volume of 15 μL.
The concentration of test sample was output using Analyst 1.6.1 from AB SCIEX.

[13] = intravenously 1 mg/kg single dose

T3 sequence (P35968 20-1356): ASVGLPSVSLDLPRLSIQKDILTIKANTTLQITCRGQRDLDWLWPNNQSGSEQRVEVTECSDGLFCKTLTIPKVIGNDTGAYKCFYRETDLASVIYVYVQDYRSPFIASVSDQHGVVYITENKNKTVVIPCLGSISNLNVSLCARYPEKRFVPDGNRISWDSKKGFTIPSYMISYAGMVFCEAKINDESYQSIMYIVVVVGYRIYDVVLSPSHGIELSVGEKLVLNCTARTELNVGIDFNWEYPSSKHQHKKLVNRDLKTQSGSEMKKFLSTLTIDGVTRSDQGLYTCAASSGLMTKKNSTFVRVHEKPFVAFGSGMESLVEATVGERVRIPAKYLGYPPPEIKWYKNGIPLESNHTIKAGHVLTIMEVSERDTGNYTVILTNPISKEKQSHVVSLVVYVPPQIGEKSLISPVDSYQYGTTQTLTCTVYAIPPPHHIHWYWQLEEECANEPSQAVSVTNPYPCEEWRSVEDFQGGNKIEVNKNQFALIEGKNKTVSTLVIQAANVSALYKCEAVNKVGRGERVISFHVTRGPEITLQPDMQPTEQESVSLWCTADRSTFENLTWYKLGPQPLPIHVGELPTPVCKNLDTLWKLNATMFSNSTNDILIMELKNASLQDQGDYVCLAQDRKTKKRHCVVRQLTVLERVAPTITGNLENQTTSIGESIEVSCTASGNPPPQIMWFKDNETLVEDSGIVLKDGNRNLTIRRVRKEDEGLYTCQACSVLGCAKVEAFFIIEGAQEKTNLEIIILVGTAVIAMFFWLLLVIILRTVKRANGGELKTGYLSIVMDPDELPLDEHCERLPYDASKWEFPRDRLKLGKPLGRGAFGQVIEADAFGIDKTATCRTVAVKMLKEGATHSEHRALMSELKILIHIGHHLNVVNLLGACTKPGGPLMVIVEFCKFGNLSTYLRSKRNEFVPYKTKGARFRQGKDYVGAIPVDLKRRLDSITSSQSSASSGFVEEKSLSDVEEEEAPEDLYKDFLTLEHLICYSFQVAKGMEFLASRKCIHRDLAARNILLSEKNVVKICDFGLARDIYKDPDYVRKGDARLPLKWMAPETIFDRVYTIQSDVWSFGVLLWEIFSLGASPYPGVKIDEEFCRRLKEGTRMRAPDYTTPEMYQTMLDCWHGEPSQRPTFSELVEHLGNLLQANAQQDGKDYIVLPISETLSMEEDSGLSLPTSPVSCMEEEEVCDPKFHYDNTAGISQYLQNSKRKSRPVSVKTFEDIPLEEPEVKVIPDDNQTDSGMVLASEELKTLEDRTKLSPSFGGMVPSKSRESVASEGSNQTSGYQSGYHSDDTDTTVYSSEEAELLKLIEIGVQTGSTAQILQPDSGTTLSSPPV
T2 sequence (Q96GD4 whole entry): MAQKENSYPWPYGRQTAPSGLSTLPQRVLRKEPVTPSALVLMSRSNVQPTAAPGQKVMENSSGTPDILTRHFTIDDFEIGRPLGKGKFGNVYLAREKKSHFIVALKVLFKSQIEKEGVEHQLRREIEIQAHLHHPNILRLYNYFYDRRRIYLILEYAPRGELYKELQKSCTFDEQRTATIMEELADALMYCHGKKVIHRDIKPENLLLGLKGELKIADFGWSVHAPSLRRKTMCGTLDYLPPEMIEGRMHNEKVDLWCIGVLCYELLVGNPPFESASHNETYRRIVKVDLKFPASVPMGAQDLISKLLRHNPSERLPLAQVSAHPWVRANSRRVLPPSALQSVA

Row | IC50 [1] [nM] | IC50 [2] [nM] | IC50 [3] [nM] | SMILES | further results
1 | 0.41 | 3.1 | 0.53 | Cc1[nH]nc2c1N=C(c1ccccc1Cl)c1cnc(N3CC4COCC4C3)cc1N2 (stereo not drawn) [Compound 46] | IC50 [4]: 211 nM; IC50 [5]: 83 nM; IC50 [6]: 48 nM; IC50 [7]: 319 nM
2 | 1.4 | 5.2 | 1.8 | Cc1[nH]nc2c1N=C(c1ccccc1Cl)c1cnc(N3CC4(COC4)C3)cc1N2 [Compound 48] | –
3 | 3 | 1.7 | 9.7 | Cc1[nH]nc2c1N=C(c1ccccc1Cl)c1cnc(N3CCN(C)[C@H](C)C3)cc1N2 [Compound 42] | –
4 | 0.82 | 6.8 | 1.5 | Cc1[nH]nc2c1N=C(c1ccccc1Cl)c1cnc(N3CCN(C4CC4)CC3)cc1N2 [Compound 44] | IC50 [4]: 358 nM; IC50 [5]: 249 nM; IC50 [6]: 101 nM; IC50 [7]: 984 nM
5 | 1 | 4.7 | 0.3 | Cc1[nH]nc2c1N=C(c1ccccc1Cl)c1cnc(N3CC4CC3CO4)cc1N2 (stereo not drawn) [Compound 45] | IC50 [4]: 507 nM; IC50 [5]: 186 nM; IC50 [6]: 171 nM; IC50 [7]: 491 nM

The next lines start with the molecule.

Row | SMILES | IC50 [1] [nM] | IC50 [2] [nM] | IC50 [3] [nM] | further results
6 | Cc1[nH]nc2c1N=C(c1ccccc1Cl)c1cnc(N3CCN(C)C(=O)C3)cc1N2 [Compound 43] | 2.1 | 5.8 | 1.8 | –
7 | Cc1[nH]nc2c1N=C(c1ccccc1Cl)c1cnc(N3CCNCC3)cc1N2 [Compound 37] | 5.4 | 8.8 | 1.7 | –
8 | Cc1[nH]nc2c1N=C(c1ccccc1Cl)c1cnc(OC3CCOC3)cc1N2 (stereo not drawn) [Compound 4] | – | – | – | IC50 [8]: 4 nM; IC50 [9]: 3 nM; IC50 [10]: 1520 nM
9 | Cc1[nH]nc2c1N=C(c1ccccc1Cl)c1cnc(C3CC3)cc1N2 [Compound 2] | – | – | – | IC50 [8]: < 3 nM; IC50 [9]: 4 nM; IC50 [10]: 593 nM
10 | Cc1[nH]nc2c1N=C(c1ccccc1Cl)c1cnc(CN3CCNCC3)cc1N2 [Compound 38] | 18 | 16 | 4.2 | –
11 | Cc1[nH]nc2c1N=C(c1ccccc1Cl)c1cnc(N3CCO[C@H](C)C3)cc1N2 (stereo in doubt) [Compound 40] | 2.7 | 11 | 2.9 | –
12 | Cc1[nH]nc2c1N=C(c1ccccc1Cl)c1cnc(N3C[C@@H](C)N(C)[C@@H](C)C3)cc1N2 [Compound 41] | 15 | 24 | 7.9 | –
13 | Cc1[nH]nc2c1N=C(c1ccccc1Cl)c1cnc(N3CCOCC3)cc1N2 [Crystal form I of compound 29, 4-(5-(2-chlorophenyl)-3-methyl-2,10-dihydropyrazolo[4,3-b]pyrido[4,3-e][1,4]diazepin-8-yl) morpholine] | – | – | – | Tumor Weight ([11]; 5 mg/kg po): 0.435 ± 0.091 g; Tumor Growth Inhibition rate (TGI) ([11]; 5 mg/kg po): 69.58%; Tumor Weight ([11]; 15 mg/kg po): 0.100 ± 0.014 g; Tumor Growth Inhibition rate (TGI) ([11]; 15 mg/kg po): 92.98%; inhibitory effect on the Kasumi-1 cell xenograft model ([11]; result in words): significant inhibitory effect; AUC(0-inf) ([12]; dog, plasma, iv, intravenously 1 mg/kg single dose, read-out: AUCinf iv): 4650 ng·h/mL; Tmax ([12]; dog, plasma, po, orally 2 mg/kg single dose): 2 h; AUC(0-inf) ([12]; dog, plasma, po, orally 2 mg/kg single dose, read-out: AUCinf po): 8600 ng·h/mL; Cl_obs iv [12, 13]: 3.67 mL/min/kg; Vz_obs iv [12, 13]: 2.35 L/kg; tz1/2 iv [12, 13]: 7.64 h; tZl1/2po ([12]; orally 2 mg/kg single dose): 6.87 h
